Common to all, as to format: cell-based
For one assay, the target named is T1, rat TRPV3 (Rattus norvegicus, UniProt Q4QYD9).
T1 construct: expressed in transfected cells
T1 sequence (Q4QYD9 1-791): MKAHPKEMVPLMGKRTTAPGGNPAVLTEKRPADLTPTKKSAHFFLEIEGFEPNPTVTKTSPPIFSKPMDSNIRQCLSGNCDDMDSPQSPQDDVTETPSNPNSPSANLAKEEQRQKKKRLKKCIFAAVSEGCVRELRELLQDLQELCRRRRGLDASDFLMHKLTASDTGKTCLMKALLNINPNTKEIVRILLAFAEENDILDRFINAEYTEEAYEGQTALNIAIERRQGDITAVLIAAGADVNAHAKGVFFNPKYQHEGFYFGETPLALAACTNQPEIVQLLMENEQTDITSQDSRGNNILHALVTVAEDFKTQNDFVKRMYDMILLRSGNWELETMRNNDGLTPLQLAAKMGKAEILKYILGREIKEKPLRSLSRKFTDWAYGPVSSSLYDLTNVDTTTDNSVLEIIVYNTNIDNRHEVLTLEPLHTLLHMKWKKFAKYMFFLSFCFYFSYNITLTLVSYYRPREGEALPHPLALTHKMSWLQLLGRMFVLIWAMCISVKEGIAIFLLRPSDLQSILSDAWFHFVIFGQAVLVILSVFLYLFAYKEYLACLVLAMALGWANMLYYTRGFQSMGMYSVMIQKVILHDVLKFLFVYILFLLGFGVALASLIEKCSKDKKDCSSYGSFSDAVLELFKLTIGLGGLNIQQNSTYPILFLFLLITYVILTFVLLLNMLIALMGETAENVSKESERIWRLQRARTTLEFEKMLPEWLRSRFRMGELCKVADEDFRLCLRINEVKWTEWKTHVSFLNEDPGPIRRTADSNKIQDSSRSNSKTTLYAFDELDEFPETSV
The assay can be described thus: Thermo-TRP assay: [Ca2+]i elevation (Fluo-4) in HEK-293 cells transfected with TRPV3. Particulars: for TRPV3 Efficacy (% Ionomycin 4 μM): agonist effect as % of ionomycin 4 μM, cells sensitized with 2-aminoethoxydiphenyl borate 100 μM; for IC50: antagonist/desensitizing, vs Thymol 100 μM; for EC50: half-maximal increase in [Ca2+]i, read-out: TRPV3 Potency EC50. The protocol:
The compounds were tested on HEK-293 cells either stably transfected with rat TRPA1, TRPV2, TRPV3, TRPV4, TRPM8 or human TRPV1 or not-transfected, by performing a continuous monitoring of the intracellular calcium ([Ca^2+]i) elevation during the experiments, following the protocol already described. On the day of the experiment, the cells were loaded for 1 h in the dark at room temperature with the fluorescent probe Fluo-4 AM (4 μM in DMSO containing 0.02% Pluronic F-127). The cells were rinsed, resuspended in Tyrode’s solution (145 mM NaCl, 2.5 mM KCl, 1.5 mM CaCl2, 1.2 mM MgCl2, 10 mM D-glucose, and 10 mM HEPES, pH 7.4), and transferred to a quartz cuvette of a spectrofluorimeter (PerkinElmer LS50B; λEX = 488 nm, λEM = 516 nm) equipped with a PTP-1 fluorescence Peltier system (PerkinElmer Life and Analytical Sciences, Waltham, MA, USA) under continuous stirring. Cell fluorescence before and after the addition of various concentrations of tested compounds was measured, normalizing the effects against the response to ionomycin (IM, 4 μM). The effect on [Ca^2+]i in non-transfected HEK-293 cells were used as the baseline and subtracted from the values obtained from the transfected ones. The efficacy of the agonists was determined by normalizing their effect to the maximum Ca^2+ influx effect on [Ca^2+]i observed with application of 4μM ionomycin. The effects of TRPA1 agonists are expressed as a percentage of the effect obtained with 100 μM allyl isothiocyanate (AITC). In the TRPV3 assay, rat TRPV3-expressing HEK-293 cells were first sensitized with the structurally unrelated agonist 2-aminoethoxydiphenyl borate (100 μM). For the TRPM8, the experiments were carried out at 22 °C. The potency (EC50 values) is determined as the concentration required to produce half-maximal increases in [Ca^2+]i. Antagonist/desensitizing behavior is evaluated against the agonist of the TRP analyzed by adding the compounds directly in the quartz cuvette 5 min before stimulation of cells with the agonist (allylisothiocyanate (100 μM) for TRPA1, capsaicin (0.1 μM) for TRPV1, cannabidiol (2 μM) for TRPV2, thymol (100 μM) for TRPV3, GSK1016790A (10 nM) for TRPV4, and icilin (0.25 μM) for TRPM8). The IC50 value is expressed as the concentration exerting a half-maximal inhibition of the agonist effect, taking as 100% the effect on [Ca^2+]i exerted by the agonist alone. A dose-response curve fitting (sigmoidal dose-response variable slope) and parameter estimation were performed with Graph-Pad Prism 8 (GraphPad Software Inc., San Diego, CA, USA). All determinations were performed at least in triplicate.

The next assay concerns the target T2, rat TRPV4 (Rattus norvegicus, UniProt Q9ERZ8).
T2 construct: expressed in transfected cells
Nature of the assay: Thermo-TRP assay: [Ca2+]i elevation (Fluo-4) in HEK-293 cells transfected with TRPV4. Here is the method: (§1) The compounds were tested on HEK-293 cells either stably transfected with rat TRPA1, TRPV2, TRPV3, TRPV4, TRPM8 or human TRPV1 or not-transfected, by performing a continuous monitoring of the intracellular calcium ([Ca^2+]i) elevation during the experiments, following the protocol already described. […] Cell fluorescence before and after the addition of various concentrations of tested compounds was measured, normalizing the effects against the response to ionomycin (IM, 4 μM). The effect on [Ca^2+]i in non-transfected HEK-293 cells were used as the baseline and subtracted from the values obtained from the transfected ones. The efficacy of the agonists was determined by normalizing their effect to the maximum Ca^2+ influx effect on [Ca^2+]i observed with application of 4μM ionomycin. The effects of TRPA1 agonists are expressed as a percentage of the effect obtained with 100 μM allyl isothiocyanate (AITC). In the TRPV3 assay, rat TRPV3-expressing HEK-293 cells were first sensitized with the structurally unrelated agonist 2-aminoethoxydiphenyl borate (100 μM). For the TRPM8, the experiments were carried out at 22 °C. The potency (EC50 values) is determined as the concentration required to produce half-maximal increases in [Ca^2+]i. […] A dose-response curve fitting (sigmoidal dose-response variable slope) and parameter estimation were performed with Graph-Pad Prism 8 (GraphPad Software Inc., San Diego, CA, USA). All determinations were performed at least in triplicate.

The next assay concerns the target T3, human TRPV1 (Homo sapiens, UniProt Q8NER1).
T3 construct: expressed in transfected cells
The assay can be described thus: Thermo-TRP assay: [Ca2+]i elevation (Fluo-4) in HEK-293 cells transfected with TRPV1. The protocol:
as §1

Another assay addresses T4, rat TRPM8 (Rattus norvegicus, UniProt Q8R455).
T4 construct: expressed in transfected cells
Nature of the assay: Thermo-TRP assay: [Ca2+]i elevation (Fluo-4) in HEK-293 cells transfected with TRPM8. The protocol:
as §1

Where [1] appears, read: vs GSK1016790A 10 nM, read-out: IC50 TRPV4.
Setting [2] is: vs Capsaicin 0.1 μM, read-out: IC50 TRPV1.
Where [3] appears, read: vs Icilin 0.25 μM, 22 °C, read-out: IC50 TRPM8.

Several values for one entry are separate records, joined by “and”; a condition that tells them apart may be missing. Equal values may be shown once. Read-outs that look alike come from different tables or passages of the source.

What is called IC50 is the midpoint of a concentration-inhibition curve. As usually defined, the EC50 is the concentration giving half of the maximal effect.

T4 sequence (Q8R455 whole entry): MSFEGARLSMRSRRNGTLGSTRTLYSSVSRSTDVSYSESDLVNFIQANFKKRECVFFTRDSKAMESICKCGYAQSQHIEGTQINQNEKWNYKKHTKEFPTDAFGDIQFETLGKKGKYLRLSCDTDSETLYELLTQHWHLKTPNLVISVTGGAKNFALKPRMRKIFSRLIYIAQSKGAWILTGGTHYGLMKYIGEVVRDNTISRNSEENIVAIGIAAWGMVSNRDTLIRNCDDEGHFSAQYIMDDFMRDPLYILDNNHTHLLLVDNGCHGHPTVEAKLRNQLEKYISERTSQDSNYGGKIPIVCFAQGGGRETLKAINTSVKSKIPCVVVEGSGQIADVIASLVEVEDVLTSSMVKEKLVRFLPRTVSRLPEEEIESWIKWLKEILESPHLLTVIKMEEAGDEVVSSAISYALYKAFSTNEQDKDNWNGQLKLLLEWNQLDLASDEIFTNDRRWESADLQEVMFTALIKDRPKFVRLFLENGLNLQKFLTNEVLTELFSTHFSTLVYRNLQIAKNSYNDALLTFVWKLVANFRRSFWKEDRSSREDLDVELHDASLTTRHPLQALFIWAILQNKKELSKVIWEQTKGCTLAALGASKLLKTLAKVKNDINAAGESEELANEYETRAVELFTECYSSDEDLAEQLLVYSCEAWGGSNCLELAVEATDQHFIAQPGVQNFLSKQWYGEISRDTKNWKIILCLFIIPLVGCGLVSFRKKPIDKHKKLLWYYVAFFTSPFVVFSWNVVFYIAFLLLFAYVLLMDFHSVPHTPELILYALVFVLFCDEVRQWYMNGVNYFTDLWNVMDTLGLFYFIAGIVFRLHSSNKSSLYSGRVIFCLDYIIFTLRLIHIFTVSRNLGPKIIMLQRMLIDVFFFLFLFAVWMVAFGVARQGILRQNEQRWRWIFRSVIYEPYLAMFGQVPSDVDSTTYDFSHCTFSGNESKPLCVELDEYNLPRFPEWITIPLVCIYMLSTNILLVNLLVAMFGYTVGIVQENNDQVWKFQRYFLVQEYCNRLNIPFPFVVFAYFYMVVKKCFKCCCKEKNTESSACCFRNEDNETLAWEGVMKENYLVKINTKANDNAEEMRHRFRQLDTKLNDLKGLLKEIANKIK
T2 sequence (Q9ERZ8 whole entry): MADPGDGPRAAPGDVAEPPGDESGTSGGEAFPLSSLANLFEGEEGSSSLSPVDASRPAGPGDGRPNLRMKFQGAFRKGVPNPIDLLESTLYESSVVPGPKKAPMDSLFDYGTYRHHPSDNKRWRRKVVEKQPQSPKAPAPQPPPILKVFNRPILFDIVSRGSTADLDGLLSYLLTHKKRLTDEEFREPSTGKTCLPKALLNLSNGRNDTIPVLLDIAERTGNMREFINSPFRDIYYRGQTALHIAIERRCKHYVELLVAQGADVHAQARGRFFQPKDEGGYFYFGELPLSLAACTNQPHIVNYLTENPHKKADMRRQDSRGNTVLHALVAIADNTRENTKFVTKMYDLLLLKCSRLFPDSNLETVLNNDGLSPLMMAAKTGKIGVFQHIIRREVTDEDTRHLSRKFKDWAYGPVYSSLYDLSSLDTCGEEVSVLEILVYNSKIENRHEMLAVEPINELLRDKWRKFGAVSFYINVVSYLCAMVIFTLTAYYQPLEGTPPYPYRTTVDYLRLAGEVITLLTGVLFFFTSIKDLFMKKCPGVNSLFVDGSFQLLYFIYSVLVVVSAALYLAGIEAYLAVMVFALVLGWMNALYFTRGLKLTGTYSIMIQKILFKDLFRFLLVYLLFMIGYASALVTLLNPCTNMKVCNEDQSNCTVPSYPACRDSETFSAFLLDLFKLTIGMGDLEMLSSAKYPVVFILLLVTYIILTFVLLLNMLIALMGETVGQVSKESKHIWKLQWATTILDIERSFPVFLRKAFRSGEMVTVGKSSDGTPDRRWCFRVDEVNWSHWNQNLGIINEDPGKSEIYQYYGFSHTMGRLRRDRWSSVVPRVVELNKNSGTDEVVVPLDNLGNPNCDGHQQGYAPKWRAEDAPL
T3 sequence (Q8NER1 whole entry): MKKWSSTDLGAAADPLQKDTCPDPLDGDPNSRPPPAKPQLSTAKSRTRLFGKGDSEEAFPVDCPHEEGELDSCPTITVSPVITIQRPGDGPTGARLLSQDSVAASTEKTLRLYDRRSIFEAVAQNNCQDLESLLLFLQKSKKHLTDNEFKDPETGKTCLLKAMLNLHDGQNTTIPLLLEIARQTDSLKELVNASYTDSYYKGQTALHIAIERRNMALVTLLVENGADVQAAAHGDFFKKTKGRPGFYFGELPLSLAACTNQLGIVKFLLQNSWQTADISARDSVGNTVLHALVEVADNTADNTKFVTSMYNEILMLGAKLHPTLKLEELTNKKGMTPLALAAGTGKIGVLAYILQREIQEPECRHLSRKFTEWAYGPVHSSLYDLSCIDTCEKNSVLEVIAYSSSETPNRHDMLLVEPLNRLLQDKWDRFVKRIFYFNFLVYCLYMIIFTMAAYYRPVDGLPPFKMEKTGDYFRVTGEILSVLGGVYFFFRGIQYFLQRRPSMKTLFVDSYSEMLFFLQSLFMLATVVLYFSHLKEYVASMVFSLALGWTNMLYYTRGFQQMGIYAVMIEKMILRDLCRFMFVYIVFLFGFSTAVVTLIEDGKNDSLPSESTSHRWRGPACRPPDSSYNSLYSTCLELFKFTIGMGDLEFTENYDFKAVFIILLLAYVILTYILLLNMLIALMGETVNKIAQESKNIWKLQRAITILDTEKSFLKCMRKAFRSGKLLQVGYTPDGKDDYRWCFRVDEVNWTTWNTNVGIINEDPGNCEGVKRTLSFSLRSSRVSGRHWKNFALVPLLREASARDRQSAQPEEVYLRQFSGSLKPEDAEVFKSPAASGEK

`C=C(C)[C@@H]1CCC(C)=C[C@H]1C1=C(O)C(=O)C(C(C)(C)CCCCCC)=CC1=O` [5b]: the “TRPV3 Efficacy (% Ionomycin 4 μM)” value on rat TRPV3 is 64.3 ± 0.9%. For the same compound, the half-inhibitory concentration (IC50) at rat TRPV3 is 0.76 ± 0.01 µM; at rat TRPV4 (setting [1]), greater than 100 µM; on human TRPV1 (setting [2]), greater than 100 µM; at rat TRPM8 (setting [3]) it was 1.2 ± 0.1 µM. Further, the EC50 at rat TRPV3 came to 0.46 ± 0.02 µM.

Take `CCCCCCC(C)(C)C1=CC2=C(C(=O)C1=O)[C@@H]1CC(C)=CC[C@H]1C(C)(C)O2` [6b]: the “TRPV3 Efficacy (% Ionomycin 4 μM)” value at rat TRPV3 amounted to 66.8 ± 2.2%. Moreover, the IC50 on rat TRPV3 is 0.72 ± 0.08 µM; on rat TRPV4, greater than 100 µM; on human TRPV1, greater than 100 µM; on rat TRPM8 it was greater than 100 µM. Further, the EC50 on rat TRPV3 is 0.5 ± 0.1 µM.

As for `CCCCCCC(C)(C)C1=CC(=O)C(C/C=C(\C)CCC=C(C)C)=C(O)C1=O` [7b, p-DMHCBGQ], the “TRPV3 Efficacy (% Ionomycin 4 μM)” value at rat TRPV3 was determined as 51.1 ± 1.0%. Also, the 50% inhibitory concentration (IC50) on rat TRPV3 is < 10 µM and 8.6 µM; on rat TRPV4 (setting [1]), greater than 50 µM; on human TRPV1 (setting [2]), greater than 100 µM; at rat TRPM8 (setting [3]), 14.9 ± 3.9 µM. Besides, the EC50 on rat TRPV3 was 1.5 ± 0.2 µM.

For `CCCCCCC(C)(C)C1=CC(=O)C2=C(OC(C)(CCC=C(C)C)C=C2)C1=O` (stereo not drawn) [8b], the “TRPV3 Efficacy (% Ionomycin 4 μM)” value on rat TRPV3 amounted to 37.55 ± 0.85%. The half-inhibitory concentration (IC50) was 38.3 ± 2 µM at rat TRPV3, greater than 100 µM on rat TRPV4 (setting [1]), greater than 100 µM on human TRPV1 (setting [2]) and greater than 100 µM on rat TRPM8 (setting [3]). Also, on rat TRPV3, the EC50 came out at 13.6 ± 1.8 µM.

The values are drawn from article PMC11942486, “The Impact of a Quinone Scaffold on Thermo-TRPs Modulation by Dimethylheptyl Phytocannabinoids” (International Journal of Molecular Sciences, 2025).
